Activity calls are given as the source filed them.
Tests used:
[1] = test system: Candida albicans; test: single-agent growth inhibition of C. albicans, dose response, counter-screen for antifungal drug resistance project, C. albicans CaCi-2, dry powder (AID 488802); type: functional, organism-based
[2] = Jurkat T cell cytotoxicity, dose response, cytotoxicity control for P. falciparum gametocyte viability project, luminescence (AID 1117277); type: functional, cell-based;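 further: potency reflects loss of cellular ATP meaning fewer viable cells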
[3] = target: Protein Wnt-3a (Mus musculus, UniProt P27467); test: Wnt3a-driven reporter signaling inhibition, dose response, selectivity assay for Gli-SUFU antagonist project, Wnt-LIGHT cells, luminescence (AID 651570); type: functional; conditions: read-out: IC50_Mean;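 further: Wnt-LIGHT reporter cells stimulated with conditioned medium from Wnt3a-producing cells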
[4] = target: T1, Microphthalmia-associated transcription factor (Homo sapiens, UniProt O75030); test: TRPM1 promoter luciferase signal decrease, dose response, MITF inhibitor project, cell-based, SK-MEL-5, cherry-picked, set 3 (AID 493073); type: functional
T1 sequence (O75030 whole entry): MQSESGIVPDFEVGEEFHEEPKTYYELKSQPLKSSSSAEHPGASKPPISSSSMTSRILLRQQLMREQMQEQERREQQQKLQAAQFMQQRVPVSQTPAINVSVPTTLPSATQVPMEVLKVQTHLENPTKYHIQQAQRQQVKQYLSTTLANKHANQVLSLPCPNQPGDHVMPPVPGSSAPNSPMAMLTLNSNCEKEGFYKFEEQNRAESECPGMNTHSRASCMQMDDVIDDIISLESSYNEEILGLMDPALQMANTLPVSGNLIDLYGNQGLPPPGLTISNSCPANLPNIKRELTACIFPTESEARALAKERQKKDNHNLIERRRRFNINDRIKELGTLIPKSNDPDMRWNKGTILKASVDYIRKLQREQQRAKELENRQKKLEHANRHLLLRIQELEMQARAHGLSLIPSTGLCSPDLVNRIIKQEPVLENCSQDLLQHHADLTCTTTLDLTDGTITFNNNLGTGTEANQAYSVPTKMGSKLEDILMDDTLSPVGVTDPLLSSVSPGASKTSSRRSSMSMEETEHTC

[5] = concentration-dependent intrinsic compound fluorescence, S. cerevisiae AD/pABC3, flow cytometry, Cherry Pick1 hits, artefact control for antifungal efflux pump inhibitor project, dose response (AID 588620); type: functional
[6] = test system: INS1; test: beta cell apoptosis inhibitors, cytokine rescue, dose response, luminescence, retest (AID 449756); type: functional, cell-based; conditions: Rattus norvegicus;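 further: cell death triggered by IL-1 beta plus TNF-alpha plus IFN-gamma mixture; protective hits raise ATP signal compared with cytokine alone wells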
[7] = P. falciparum late gametocyte killing, dose response, luminescence (AID 1117278); type: functional, cell-based;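 further: gametocytes exposed to compound for 24 hours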
[8] = target: T2, Sentrin-specific protease 8 (Homo sapiens, UniProt Q96LD8); test: SENP8 protease inhibitors, SAR follow-up, biochemical, luminescence, set 2 (AID 588601); type: functional
T2 sequence (Q96LD8 whole entry): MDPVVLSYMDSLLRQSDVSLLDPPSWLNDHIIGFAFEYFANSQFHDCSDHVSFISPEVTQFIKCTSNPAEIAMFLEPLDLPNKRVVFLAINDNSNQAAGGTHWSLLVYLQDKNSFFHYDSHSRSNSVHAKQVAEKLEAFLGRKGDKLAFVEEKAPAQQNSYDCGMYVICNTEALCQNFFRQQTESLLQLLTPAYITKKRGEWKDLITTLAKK

[9] = target: T3, Sentrin-specific protease 6 (Homo sapiens, UniProt Q9GZR1); test: SENP6 protease inhibitors, SAR follow-up, biochemical, luminescence, set 2 (AID 588598); type: functional
T3 sequence (Q9GZR1 whole entry): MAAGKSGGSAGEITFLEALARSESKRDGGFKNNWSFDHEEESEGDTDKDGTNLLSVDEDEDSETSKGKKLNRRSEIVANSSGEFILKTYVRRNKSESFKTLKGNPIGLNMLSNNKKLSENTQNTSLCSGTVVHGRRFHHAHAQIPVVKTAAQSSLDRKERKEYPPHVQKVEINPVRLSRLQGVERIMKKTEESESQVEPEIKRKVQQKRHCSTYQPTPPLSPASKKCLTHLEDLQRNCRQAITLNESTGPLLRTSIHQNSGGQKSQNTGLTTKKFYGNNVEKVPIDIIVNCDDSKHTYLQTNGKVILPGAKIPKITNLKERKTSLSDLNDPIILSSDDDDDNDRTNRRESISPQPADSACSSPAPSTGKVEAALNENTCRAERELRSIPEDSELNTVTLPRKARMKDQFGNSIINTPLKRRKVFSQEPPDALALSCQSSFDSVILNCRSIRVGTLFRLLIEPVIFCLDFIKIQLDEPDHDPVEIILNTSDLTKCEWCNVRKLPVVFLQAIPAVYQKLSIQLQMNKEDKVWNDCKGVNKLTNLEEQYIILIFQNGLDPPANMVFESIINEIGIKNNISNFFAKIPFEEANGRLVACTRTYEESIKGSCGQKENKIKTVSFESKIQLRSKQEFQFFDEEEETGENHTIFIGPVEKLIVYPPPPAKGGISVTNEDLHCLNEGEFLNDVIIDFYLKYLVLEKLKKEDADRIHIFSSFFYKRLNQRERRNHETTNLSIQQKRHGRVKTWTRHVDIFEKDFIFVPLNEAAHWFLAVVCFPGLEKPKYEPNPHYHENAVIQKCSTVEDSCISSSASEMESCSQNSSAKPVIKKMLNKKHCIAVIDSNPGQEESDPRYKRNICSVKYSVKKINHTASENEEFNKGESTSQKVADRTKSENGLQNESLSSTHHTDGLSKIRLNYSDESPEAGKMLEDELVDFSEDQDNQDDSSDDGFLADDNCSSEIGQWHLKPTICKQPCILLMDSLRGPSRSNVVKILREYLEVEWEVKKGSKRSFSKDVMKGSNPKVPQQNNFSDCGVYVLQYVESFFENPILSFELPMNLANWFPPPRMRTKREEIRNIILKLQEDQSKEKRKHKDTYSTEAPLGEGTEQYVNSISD

[10] = target: T4, Caspase-3 (Homo sapiens, UniProt P42574); test: caspase-3 inhibitors as off-family protease, SAR follow-up, selectivity assay for SENP protease inhibitor project, biochemical, luminescence, set 2 (AID 588599); type: functional
T4 sequence (P42574 whole entry): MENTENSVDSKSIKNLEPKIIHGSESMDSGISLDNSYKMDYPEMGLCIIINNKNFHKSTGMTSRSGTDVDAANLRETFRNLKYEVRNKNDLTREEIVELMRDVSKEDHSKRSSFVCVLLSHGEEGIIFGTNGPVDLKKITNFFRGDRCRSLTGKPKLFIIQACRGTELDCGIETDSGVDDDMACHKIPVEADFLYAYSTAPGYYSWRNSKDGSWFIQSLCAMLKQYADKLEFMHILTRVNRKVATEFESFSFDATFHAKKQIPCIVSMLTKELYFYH

[11] = target: T5, Sentrin-specific protease 7 (Homo sapiens, UniProt Q9BQF6); test: SENP7 protease inhibitors, SAR follow-up, biochemical, luminescence, set 2 (AID 588600); type: functional
T5 sequence (Q9BQF6 whole entry): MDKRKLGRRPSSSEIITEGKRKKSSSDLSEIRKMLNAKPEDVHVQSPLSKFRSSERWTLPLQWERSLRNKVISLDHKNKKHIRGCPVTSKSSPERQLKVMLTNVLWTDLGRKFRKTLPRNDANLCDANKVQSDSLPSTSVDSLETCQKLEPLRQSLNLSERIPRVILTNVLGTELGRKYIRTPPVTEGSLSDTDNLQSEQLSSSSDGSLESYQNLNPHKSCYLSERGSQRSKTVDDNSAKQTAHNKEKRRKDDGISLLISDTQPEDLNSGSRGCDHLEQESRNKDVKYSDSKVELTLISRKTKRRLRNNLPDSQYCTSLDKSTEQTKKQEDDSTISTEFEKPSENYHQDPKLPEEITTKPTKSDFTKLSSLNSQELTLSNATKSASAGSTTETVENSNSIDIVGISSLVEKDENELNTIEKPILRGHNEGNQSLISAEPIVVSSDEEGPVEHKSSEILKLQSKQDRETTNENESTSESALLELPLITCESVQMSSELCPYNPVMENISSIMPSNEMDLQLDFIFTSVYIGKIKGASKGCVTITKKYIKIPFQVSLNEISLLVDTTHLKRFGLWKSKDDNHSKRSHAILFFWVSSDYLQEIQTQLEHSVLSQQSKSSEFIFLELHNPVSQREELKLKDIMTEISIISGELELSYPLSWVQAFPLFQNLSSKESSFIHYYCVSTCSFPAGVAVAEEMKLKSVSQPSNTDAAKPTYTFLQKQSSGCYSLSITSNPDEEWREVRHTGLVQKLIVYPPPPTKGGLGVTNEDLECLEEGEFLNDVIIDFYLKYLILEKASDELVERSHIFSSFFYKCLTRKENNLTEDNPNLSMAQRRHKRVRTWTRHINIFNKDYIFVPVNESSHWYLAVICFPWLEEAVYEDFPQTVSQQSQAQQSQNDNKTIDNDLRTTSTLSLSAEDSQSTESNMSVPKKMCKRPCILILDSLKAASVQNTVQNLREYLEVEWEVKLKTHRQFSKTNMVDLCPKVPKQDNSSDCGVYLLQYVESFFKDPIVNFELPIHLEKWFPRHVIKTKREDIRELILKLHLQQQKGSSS

Protein Wnt-3a, sequence (P27467 whole entry): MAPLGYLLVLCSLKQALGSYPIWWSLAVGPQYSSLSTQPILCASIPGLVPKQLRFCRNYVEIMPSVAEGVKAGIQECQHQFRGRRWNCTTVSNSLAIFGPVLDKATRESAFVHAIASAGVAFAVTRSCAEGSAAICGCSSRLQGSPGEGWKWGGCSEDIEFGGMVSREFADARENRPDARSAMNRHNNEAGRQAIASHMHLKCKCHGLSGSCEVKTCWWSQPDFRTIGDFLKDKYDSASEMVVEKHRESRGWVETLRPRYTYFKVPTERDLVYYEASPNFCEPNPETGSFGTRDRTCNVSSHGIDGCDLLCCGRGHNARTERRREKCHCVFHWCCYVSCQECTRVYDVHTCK

SMILES: Cc1nn(S(C)(=O)=O)c2ccccc12
- AC50 [1]: 46.7 µM (active)

SMILES: Cc1ccc(-c2c[n+](Cc3ccc(Cl)c(Cl)c3)c3n2CCC3)cc1
- IC50 [2]: 43.6 µM (inactive)
- IC50 [3]: 24.5 µM (inactive)
- AC50 [4]: 3.74 µM (active)
- EC50 [5]: 43.6 µM (active)
- AC50 [6]: 3.4 µM (active)
- IC50 [7]: > 109 µM (inactive)

SMILES: O=C(Nc1nc2ccc(SC(F)F)cc2s1)c1cn(-c2ccccc2)nc1-c1ccc(Cl)cc1
- IC50 [8]: > 99 µM (inactive)
- IC50 [9]: > 99 µM (inactive)
- IC50 [10]: > 99 µM (inactive)
- IC50 [11]: > 99 µM (inactive)

From ChEMBL document CHEMBL1201862, “PubChem BioAssay data set” (2004)
